Data from US9290484B2, “Furyl and thienyl triazole derivatives and therapeutic uses thereof” (University of Medicine and Dentistry of New Jersey, priority 2013, dated 2016).
≈ marks a conversion by molar mass, not a printed value.

Experiments:
[1] = system: nitric oxide production induced by gamma interferon in PAM212 keratinocytes; details: read-out: Nitric oxide inhibition IC50, 100 U/ml gamma interferon, nitrite at 72 hours
Description: The assay for measurement of anti-inflammatory activity is based on the ability of the cytokine gamma interferon to induce the formation of nitric oxide synthase and subsequently of nitric oxide itself in keratinocytes.
For each assay the cells were inoculated into a 24-well tissue culture plate at 250,000 cells per well in growth medium. After 24 hours the medium was changed to phenol red and serum-free DMEM containing 100 U/ml of gamma interferon. Nitric oxide production was thereby initiated and at 72 hours post inoculation was quantified spectrophotometrically by measuring the accumulation of nitrite in the culture medium using the Greiss reagent. This was done by drawing an aliquot of the culture medium and mixing it with equal volumes of 1.0% sulfanilamide and 0.1% N-1-naphthylethylene diamine in 50% phosphoric acid. […] Compounds according to the present invention were assayed for their anti-inflammatory activity by examining their ability to suppress nitric oxide production in this assay.

E. coli = assay: microbe, parasite or virus in culture; details: for Antibacterial MIC E. Coli: serial two-fold dilutions, IA = Inactive
Description: (§1) Compounds were tested using E. coli, G. vaginalis or S. aureus. Bacteria were grown on appropriate media containing a range of concentrations of the test compounds which were obtained by serial two-fold dilutions. Concentrations used were at least twice the MIC to at least ½ the break point for susceptibility to inhibition. MICs were determined spectrophotometrically by measuring changes in absorbance of bacterial cultures in the absence and presence of the test compounds.

G. vaginalis = assay: Antibacterial MIC, G. vaginalis; format: cell-based, Gardnerella vaginalis; details: serial two-fold dilutions, IA = Inactive
Description: as §1

Row | SMILES | IC50 [1] | MIC (E. coli; Escherichia coli, read-out: Antibacterial MIC E. Coli) | MIC (G. vaginalis; Gardnerella vaginalis) | Antibacterial MIC E. Coli (E. coli) | Antibacterial MIC G. Vaginalis (G. vaginalis)
1 | O=[N+]([O-])c1ccccc1C=CC=Nn1c(S)nnc1-c1cccs1 [Compound 3a, 4-[Imino-(3-(−2-nitrophenyl)-2-ethylenyl)]-3-mercapto-5-(2-thienyl)-4H-1,2,4-triazole] | 14 µM |  |  |  | 
2 | O=C1CN(/N=C/c2ccc([N+](=O)[O-])o2)C(=O)N1 [NF, Nitrofurantoin, reference compound] |  | 1.2 µg/mL (≈ 5.04 µM) | 11.9 µg/mL (≈ 50 µM) |  | 
3 | O=[N+]([O-])c1ccc(C=Nn2c(S)nnc2-c2cccs2)o1 [Compound 3d] |  |  |  | 16.0 µg/mL | 3.2 µg/mL
4 | O=[N+]([O-])c1ccc(C=CC=Nn2c(S)nnc2-c2ccco2)o1 [Compound 3c, 4-[imino-(3-(5-nitro-2-furyl)-2-ethylenyl)]-3-mercapto-5-(2-furoyl)-4H-1,2,4-triazole] |  |  |  | 16.6 µg/mL | 16.6 µg/mL
